The results in this text go back to US20040101488A1, “Method for the prevention of septic shock lethality using curcumin” (priority 2000, published 2004).

For assay [1], the system named is mice injected with lipopolysaccharide (septic shock). Put plainly: LPS-induced septic shock in mice: survival and symptoms. The conditions noted are these: for Percentage Survival: prior to and after LPS (40 mg/kg i.p.), mice. It counts as in vivo. As to the method: In septic shock experiments, age-and body weight-matched (25-30 g) female swiss albino mice were injected intraperitoneally with 40 mg/kg LPS solubilised in 200 μl sterile 0.9% saline. Control animals received equal volumes of saline. For groups that were treated with curcumin, the mice were fed orally with 20 mg/kg to 60 mg/kg body weight curcumin suspended in olive oil (20 mg/ml) at various times prior to and after injecting LPS. The mice were fed with curcumin 4 hrs and 2 hrs prior to, simultaneously and 4 hrs, 16 hrs, 24 hrs, 48 hrs and 72 hrs after injecting LPS. Following this, the mice were observed every 2-3 hours after LPS injection with respect to septic shock symptoms such as fever, lethargy, diarrhea, watery eyes and survival.
Intraperitoneal injection of high doses of LPS (40 mg/kg) induced lethal endotoxin shock in mice. […] The death occurred within 24-48 hrs after receiving LPS. To test whether curcumin protects mice injected with LPS from septic shock, we treated mice with varying doses of curcumin 4 hrs and 2 hrs prior to, simultaneously and 4 hrs, 16 hrs, 24 hrs, 48hrs and 72 hrs after injecting LPS. […] Overall, severity of the septic shock symptoms in treated group was much less in comparison with control groups (as shown in Table 2). The mice start recovering within 48 to 72 hrs. Most importantly, 70% of the mice treated with 40 mg/kg to 60 mg/kg curcumin survived from death (FIG. 1).

The test system of assay [2] is neutrophils in the liver of LPS injected mice. Put plainly: Liver histology, chloroacetate esterase staining of neutrophils after LPS challenge. The conditions noted are these: 24 hrs after LPS challenge, liver sections, FIG. 2.
Assay [3] deals with mice injected with lipopolysaccharide (septic shock). Description: LPS-induced septic shock in mice: survival and symptoms. The conditions noted are these: none prior. It counts as in vivo.
The subject of assay [4] is adhesion of human peripheral neutrophils to endothelial cells from human umbilical cord. Put plainly: Cell adherence assay: neutrophil adhesion to endothelial monolayers. The format is cell-based. How it is done:
Endothelial cells grown to confluency in 96 well plates were incubated without or with indicated concentrations of curcumin for 1 hr followed by induction without (hatched bars) or with (closed bars) LPS (1 μg/ml) for 6 hrs. The cells were then incubated with human peripheral neutrophils for 1 hr. The amount of neutrophils adhering to the endothelial cell monolayers was measured by a colorimetric assay as described in Example 6.
Primary endothelial cells were isolated from human umbilical cord. For isolation of the cells the umbilical cord vein was canulated and then perfused with phosphate buffer saline to remove blood and then incubated with 0.125% trypsin for 15 mins at 37° C. The vein was then perfused with PBS and the cells were collected. […] The viability of endothelial cells in culture was checked by trypan blue exclusion test and the purity was determined by E-selectin staining. […]
Adhesion of neutrophils to endothelial monolayers was assayed as described previously (Dobrina A et al., J. Clin. Invest., 88:20-26 1991). […] The absorbance was determined at […] using an automated microplate reader (Anthos Labtech HT2, Austria).

“Also recorded” adds a separate entry of the source.

In the case of `COc1cc(/C=C/C(=O)CC(=O)/C=C/c2ccc(O)c(OC)c2)ccc1O` [curcumin, diferuloylmethane], the “mice survived from death” value in assay [1] (40 mg/kg to 60 mg/kg curcumin orally, LPS 40 mg/kg i.p., FIG. 1) is given as 70%. Also, the “Percentage Survival” value in assay [1] (curcumin 20 mg/kg body weight orally) stood at 0%; in assay [1] (curcumin 40 mg/kg body weight orally) it was 70%; in assay [1] (curcumin 60 mg/kg body weight orally), 70%. Moreover, in assay [1] (curcumin treated mice, LPS 40 mg/kg i.p., lethargy, watery eyes, diarrhea), the “severity of the septic shock symptoms versus control groups” value was “much less”. Further, the “protection of mice by low dose of curcumin” value in assay [1] (low dose, LPS 40 mg/kg i.p.) is “not able to protect the mice”. Further, the “extravasation of neutrophils in the liver versus untreated mice” value in assay [2] is reported as “much reduced”. In addition, the “survival of recovered mice on repeated LPS injection” value in assay [3] (curcumin only simultaneously with and after LPS (3, 6, 9, 24, 42 hrs)) was “all the animals survived; also recorded: all survived death”. The “severity of septic shock symptoms in recovered mice on repeated LPS injection” value in assay [3] (curcumin only simultaneously with and after LPS) is “significant reduction in severity of septic shock symptoms”. In addition, in assay [4] (10 μM to 40 μM curcumin for 1 hr, no LPS), the “adhesion of neutrophils to unstimulated endothelial monolayers” value is “did not affect”. Also, in assay [4] (curcumin 40 μM for 1 hr, then LPS 1 μg/ml for 6 hrs, concentration dependent over 10 to 40 μM), the “inhibition of neutrophil adhesion to LPS stimulated endothelial cells” value is “almost complete inhibition”.
